Where “and” joins values, the source holds several entries; their conditions need not be identical. Identical values can stand only once.

In one experiment the target is T1, HpMTAN (Helicobacter pylori, UniProt Q9ZMY2).
T1 sequence (Q9ZMY2 1-230): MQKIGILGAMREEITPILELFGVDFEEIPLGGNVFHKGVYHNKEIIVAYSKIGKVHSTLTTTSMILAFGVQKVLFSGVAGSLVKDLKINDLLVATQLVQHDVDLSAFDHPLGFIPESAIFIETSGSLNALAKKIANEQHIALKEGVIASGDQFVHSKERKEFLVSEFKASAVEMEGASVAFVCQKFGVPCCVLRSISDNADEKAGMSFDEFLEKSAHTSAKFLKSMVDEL
In words: Inhibition of HpMTAN. It is filed as biochemical. The note with it: 37 °C.

A further experiment concerns the target T2, SaMTAN (Staphylococcus aureus, UniProt Q5HFG2).
T2 sequence (Q5HFG2 1-228): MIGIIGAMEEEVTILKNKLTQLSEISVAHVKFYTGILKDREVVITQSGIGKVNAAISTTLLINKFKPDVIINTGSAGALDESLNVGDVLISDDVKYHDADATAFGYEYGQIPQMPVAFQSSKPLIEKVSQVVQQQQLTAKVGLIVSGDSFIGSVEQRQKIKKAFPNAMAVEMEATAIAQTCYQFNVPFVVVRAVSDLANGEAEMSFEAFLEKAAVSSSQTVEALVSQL
Put plainly: Inhibition of SaMTAN. The class given is biochemical. The note with it: 37 °C, compared with MTDIA.

As to `CSC[C@H]1CN(Cc2c[nH]c3c(N)ncnc23)C[C@@H]1O` [MTDIA, Methylthio-DADMe-Immucillin-A], the inhibitory constant (Ki) on HpMTAN (read-out: Ki (dissociation constant) for HpMTAN) was 1 nM and 1.25 nM.
Turning to `Nc1ncnc2c(CN3C[C@H](CSCCOCCO)[C@@H](O)C3)c[nH]c12` [Compound 2], the “improvement of Ki/affinity relative to MTDIA for HpMTAN” value on HpMTAN (compared with MTDIA) was determined as 14 fold. The “improvement of Ki relative to MTDIA for SaMTAN” value at SaMTAN came out at 81 fold.

What is called Ki is the dissociation constant of the complex between target and ligand, obtained from inhibition or displacement.

The values are drawn from publication PMC10644263 (Biochemistry, 2020).
